Tests used:
[1] = Metabolic stability in human liver microsomes (LC-MS/MS); assay type: in vitro ADME
Source text: An approach to address this issue of bioavailability is to improve metabolic stability. The para-position of the phenyl ring in acetanilide moieties is susceptible to oxidation. […] To test this, we altered the substitution pattern on the phenyl ring by moving the F atom from the ortho in 84 to the para position (Figure 1A). The regioisomer 51-106, resulting from the above change, was synthesized by coupling 3-(1-methyl-1H-pyrazol-4-yl)quinoxalin-6-amine (1) with freshly prepared 1-fluoro-4-isocyanato-2-(trifluoromethyl)benzene in dichloromethane (Scheme 1). To determine the metabolic stability of 51-106, we incubated 51-106 and analog 84 with human (pooled male and female) liver microsomes and monitored their stability using liquid chromatography–tandem mass spectrometry.
The in vitro metabolic stability of 51-106 was determined using human liver […] (XenoTech, LLC; Kansas City, KS, USA), following previously reported methods. […] Sample analysis was performed by liquid chromatography–tandem mass spectrometry (SCIEX QTRAP 4000 LC-MS/MS System, SCIEX, Framingham, MA, USA).

[2] = system: HCT116 MAP3K1 WT cells; assay: PrestoBlue growth inhibition assay; assay type: cell-based; conditions: Homo sapiens, HCT-116, 72 h
Source text: (§1) To investigate the target dependency of 51-106 activity, MAP3K1 was genetically knocked out (KO) in HCT116 cells using CRISPR-Cas9 technology (Gene Editing and Screening Core Facility, Memorial Sloan Kettering Cancer Center). The HCT116 cell line was chosen because it is predominantly diploid, allowing for a more predictable outcome when utilizing CRISPR technology compared with cell lines with aneuploidy. […] Western blot analysis confirmed the absence of MAP3K1 protein expression in KO cells compared to non-targeting control (NTC) MAP3K1 wild-type (WT) cells (Figure 3C). The MAP3K1 primary antibody used binds to residues 50 and 100 of the N-terminus of MAP3K1. HCT116 MAP3K1 WT and MAP3K1 KO cells were subjected to PrestoBlue growth inhibition assay with 51-106 treatment. […] Further optimization of 51-106 and/or the use of emerging methods such as DNA-encoded library based screens followed by machine learning (DEL-ML) along with a comprehensive suite of biophysical and biochemical screens should be employed to develop a MAP3K1 chemical probe.
(§2) A suspension of in 90 μL media was plated per well in clear, flat-bottomed, sterile, 96-well tissue culture plates (Cat# 12-565-438; Fisher Scientific, Waltham, MA, USA). The cells were allowed to adhere overnight in a humidified 5% CO2 incubator at 37 °C. Drug working solutions were prepared from 10 mM DMSO (Cat# BP231; Fisher Scientific) stocks. Drugs were added in 6 dilutions in triplicates. Ten μL of the working solution was added to each well in the plate to yield a final concentration of 20—0.63 μM drug in 1% DMSO. Blank DMSO controls were also included. […] Fluorescence (Ex 560, Em 590) was measured on a plate reader (Spectramax M5e; Molecular Devices) to determine T0. […] Fluorescence was measured on a plate reader. Wells with 1% DMSO were used to determine T100. % Growth was calculated as [(Fluorescence read of a well − T0)/(T100 − T0)] ∗ 100. The data were plotted using Prism V 9.1.0, and the IC50 values were determined using a four-parameter Logistic Curve Fitting function.

[3] = system: HCT116 MAP3K1 KO cells; assay: PrestoBlue growth inhibition assay; assay type: cell-based
Source text: as §1, §2

[4] = system: NPM1 T199 phosphorylation; assay: Western blot of NPM1 T199 phosphorylation in PANC-1 cells; assay type: cell-based; conditions: 2 h
Source text: We further investigated changes in NPM1 phosphorylation in our dataset. Of the NPM1 phosphorylation sites quantified, four sites had significant dose-dependent decreases upon 51-106 treatment: S137, T199, S222, and S227. Only one of these phosphorylation sites, T199, has a commercially available antibody. Importantly, T199 phosphorylation plays an essential role in NPM1 function, as it is required for localization of NPM1 to sites of DNA double-stranded breaks, where it colocalizes with other DNA repair proteins such as γH2AX and RAD51 [38].
Cells were washed with cold 1× PBS and lysed in Radioimmunoprecipitation assay (RIPA) buffer (Cat# 89901; Thermo Fisher Scientific), sodium orthovanadate (Na3VO4) (Cat# 567540-5GM; Sigma-Aldrich; St. Louis, MO, USA), sodium fluoride (NaF) (Cat# 201154-5G, >99% purity; Sigma-Aldrich), β-glycerophosphate (Cat# G9422-10G; Sigma-Aldrich), and 1 mM phenylmethylsulfonyl fluoride (Cat# 10837091001; Sigma Aldrich). The samples were incubated on ice for 30 min, vortexed at 10 min intervals, and centrifuged at 14,000× g for 10 min at 4 °C. The supernatant was collected, and protein was quantified using the BCA Protein Assay kit (Cat# 23225; Thermo Fisher Scientific). […]

Compound: Cn1cc(-c2cnc3ccc(NC(=O)Nc4ccc(F)c(C(F)(F)F)c4)cc3n2)cn1 [51-106, 1-(4-Fluoro-3-(trifluoromethyl)phenyl)-3-(3-(1-methyl-1H-pyrazol-4-yl)quinoxalin-6-yl)urea]
- improvement in t½ in human liver microsomes ([1]; 51-106 versus analog 84): ~ 3.7 fold
- T1/2 (half-life) in human liver microsomes ([1]; Species Human): ~ 50 h
- Hepatic Extraction Ratio (E) ([1]; Species Human, human liver microsomes): 0.03
- half-life ([1]; both sexes, human, liver microsomes, Species Human, read-out: T1/2 (half-life) in human liver microsomes (converted)): 50.2 h
- IC50 [2]: ~1.8 µM
- increase in IC50 in MAP3K1 KO cells ([3]; HCT116 MAP3K1 KO versus WT): 5 fold
- IC50 ([3]; Homo sapiens, HCT-116, 72 h, HCT116 MAP3K1 KO, 72 h, PrestoBlue): ~8.9 µM
- NPM1 T199 phosphorylation (Western blot) [4]: Decreased phosphorylation in NPM1 T199
